Source: patent US20030185853A1, “Arteriosclerosis-preventing material, immune-activating material, vertebrate that has eaten such materials, and eggs thereof” (Nichimo Co., Ltd., priority 1999, published 2003)

What was measured:
[1] = system: Smooth muscle cells (SMC) derived from the aortic tunica media of stroke-prone spontaneously hypertensive rats (SHRSP); assay: Study 2 on arteriosclerosis capability: propagation of smooth muscle cells of the tunica media; type: cell-based; conditions: 0.1 to 30 μmol/liter, five days; for smooth muscle cell propagating capability, number of cells (Determination A, FIG. 5): 10% FBS; for smooth muscle cell propagating capability, number of cells (Determination B, FIG. 6): with 20 ng/ml PDGF
Experimental: The object of the study is to investigate the effect of the above-described concentrated material of the present invention in terms of preventing propagation of smooth muscle cells of the tunica media of the blood vessels, which is one factor in arteriosclerosis.
1) Smooth muscle cells (SMC) derived from the aortic tunica media of stroke-prone spontaneously hypertensive rats (SHRSP) were prepared by the explant method, and five generations were cultivated.
2) After inoculating 10,000 well SMC in a 24-well plate, the cells were rinsed in the subconfluent state with DMEM medium containing 10% FBS at 37° C. and in the presence of 5% CO2. [The medium] was replaced with DMEM medium containing 0.4% albumin (phenol red-free) and cultivated for 48 hours.
3) Genistein (referred to hereafter as Gen), daidzein (referred to hereafter as Dai), glycitein (referred to hereafter as Gly), and the concentrated material of the present invention were each added to DMEM culture medium (phenol red-free) containing 10% FBS (charcoal-treated) to a concentration of 0.1 to 30 μmol/liter and cultivated for five days. Then, the number of cells was determined with a Coulter counter (referred to hereafter as Determination A).
4) The number of cells was determined by adding 20 ng/ml PDGF in accordance with the method 3) described above (referred to as Determination B).

chicks = assay: Study 1 on immune-activating capability: number of deaths during rearing of chicks; type: in vivo; conditions: administered to comparison group after three weeks
Experimental: The object of the study is to investigate the immune-activating capability based on the number of deaths during rearing of chicks.
6,200 young chicks immediately after hatching were grouped into a comparison group and a study group each. The comparison group was provided conventional feed to which Bacillus subtilus (0.1 wt %) was added, and the study group was provided conventional feed to which the product (0.1 wt %) of propagation of lactic acid bacteria (Enterococcus faesium) as useful microorganisms in pulse crops of the present invention was added, and the number of deaths of chicks at one week, two weeks, three weeks, and four weeks of age was compared.

Structure (SMILES)	smooth muscle cell propagating capability, number of cells (Determination A, FIG. 5) [1]	smooth muscle cell propagating capability, number of cells (Determination B, FIG. 6) [1]	increase in deaths of chicks after antibiotic administration (chicks)
O=c1c(-c2ccc(O)cc2)coc2cc(O)ccc12 [Dai, daidzein]	cell-reducing effect	cell-reducing effect	
O=c1c(-c2ccc(O)cc2)coc2cc(O)cc(O)c12 [Gen, Genistein]	cell-reducing effect	cell-reducing effect	
CC1(C)S[C@@H]2[C@H](NC(=O)[C@H](N)c3ccccc3)C(=O)N2[C@H]1C(=O)O [ampicillin]			an increase in deaths could not be prevented
